Assay results reported in US6451854B1, “α-amino acid phenyl ester derivatives” (Akzo Nobel N.V., priority 1998, dated 2002).
Structures can show the parent of a compound that is named as a salt.

How the values were obtained:
mice = assay: hypnotic activity: loss of righting reflex after intravenous administration in mice; assay type: in vivo; conditions: Mus musculus, iv, dose causing loss of righting reflex for minimum 30 seconds in 50% of mice, intravenous injection over 10 seconds; read-out: HD50 (the source's name)
Method: The hypnotic potency of the α-amino acid phenyl ester derivatives of the invention was determined upon their intravenous administration in mice. The dose required to cause a loss of righting reflex for a minimum period of 30 seconds in 50% of treated mice after intravenous injection over 10 seconds was determined. This dose is termed the HD50 (hypnotic dose50) and is expressed in μmol.kg^−1.

GABAA receptors = assay: inhibition of [35S]-TBPS binding to rat whole brain membranes; conditions: concentration required to inhibit 50% of [35S]-TBPS binding
Source text: γ-Aminobutyric acid (GABA) is the major inhibitory neurotransmitter within the central nervous system and it is probable that compounds potentiating the effects of GABA at GABAA receptors will induce anaesthesia (S. A. Zimmerman, M. V. Jones and N. L. Harrison, J. Pharmacol. Exp. Therap. 1994, 270, 987-991; N. P. Franks and W. R. Lieb, Nature 1994, 367, 607-614). Indeed there is compelling evidence that many hypnotics exert their biological activity via modulation of GABAA receptors, including steroids, barbiturates, benzodiazepines and propofol (D. L. Tanelian, P. Kosek, I. Mody and M. B. Maclver, Anesthesiology 1993, 78, 757-776).
The in vitro effect of the compounds of the invention at GABAA receptors was assessed through determination of their ability to inhibit [^35S]-TBPS ([^35S]-tert-butyl bicyclophosphorothionate) binding to rat whole brain membranes. The concentration of α-amino acid phenyl ester derivative required to inhibit 50% of binding of [^35S]-TBPS was determined. These in vitro experiments were carried out as described in detail by Anderson et al., J.Med.Chem. 1997, 40, 1668-1681.

Q: For `COCCN(CCOC)C(C)C(=O)Oc1c(OC)cccc1OC` (racemic) (as salt: hydrochloride) [Example 7f, (±)-2-[N-bis(2-methoxyethyl)amino]propionic acid, 2,6-dimethoxyphenyl ester hydrochloride (1:1) salt], which melting point is on record?
A: The melting point was 114 to 116 °C.

Q: Which melting point does the source give for `COCCN(CCOC)C(C)C(=O)Oc1c(OC)cc(C)cc1OC` (racemic) (as salt: hydrochloride) [Example 7e, (±)-2-[N-bis(2-methoxyethyl)amino]propionic acid, 2,6-dimethoxy-4-methylphenyl ester hydrochloride (1:1) salt] here?
A: Its melting point is 96 to 97 °C.

Q: With `CC[C@H](C(=O)Oc1c(OC)cc(C)cc1OC)N(CCOC)CCOC` [Example 7a, R-(+)-2-[N-bis(2-methoxyethyl)amino]butyric acid, 2,6-dimethoxy-4-methylphenyl ester hydrochloride (1:1) salt] as the compound, how does the ED50 (mice) read?
A: The ED50 was 21 µmol/kg.

Q: And the IC50 (GABAA receptors)?
A: Its IC50 is 22 µM.

Q: Which ED50 (mice) does the source give for `CCN(CC)C(C)C(=O)Oc1c(OC)cc(C)cc1OC` (racemic) [Example 7j, (±)-2-[diethylamino]propionic acid, 2,6-dimethoxy-4-methylphenyl ester hydrochloride (1:1) salt] here?
A: The ED50 was 43 µmol/kg.

Q: And the IC50 (GABAA receptors)?
A: The IC50 was < 50 µM.

Q: What does the source list for `CCOCCN(CCOCC)[C@@H](CC)C(=O)Oc1c(OC)cccc1OC` [Example 7aa, S-(−)-2-[N-bis(2-ethoxyethyl)amino]butyric acid, 2,6-dimethoxyphenyl ester hydrochloride (1:1) salt]?
A: ED50 (mice): 22 µmol/kg; IC50 (GABAA receptors): 11 µM
